Results on 44 compounds are retold here after the Kinase Knowledgebase extract (Sharma et al. 2016).

ROCK2 (human), sequence (O75116 whole entry, looked up): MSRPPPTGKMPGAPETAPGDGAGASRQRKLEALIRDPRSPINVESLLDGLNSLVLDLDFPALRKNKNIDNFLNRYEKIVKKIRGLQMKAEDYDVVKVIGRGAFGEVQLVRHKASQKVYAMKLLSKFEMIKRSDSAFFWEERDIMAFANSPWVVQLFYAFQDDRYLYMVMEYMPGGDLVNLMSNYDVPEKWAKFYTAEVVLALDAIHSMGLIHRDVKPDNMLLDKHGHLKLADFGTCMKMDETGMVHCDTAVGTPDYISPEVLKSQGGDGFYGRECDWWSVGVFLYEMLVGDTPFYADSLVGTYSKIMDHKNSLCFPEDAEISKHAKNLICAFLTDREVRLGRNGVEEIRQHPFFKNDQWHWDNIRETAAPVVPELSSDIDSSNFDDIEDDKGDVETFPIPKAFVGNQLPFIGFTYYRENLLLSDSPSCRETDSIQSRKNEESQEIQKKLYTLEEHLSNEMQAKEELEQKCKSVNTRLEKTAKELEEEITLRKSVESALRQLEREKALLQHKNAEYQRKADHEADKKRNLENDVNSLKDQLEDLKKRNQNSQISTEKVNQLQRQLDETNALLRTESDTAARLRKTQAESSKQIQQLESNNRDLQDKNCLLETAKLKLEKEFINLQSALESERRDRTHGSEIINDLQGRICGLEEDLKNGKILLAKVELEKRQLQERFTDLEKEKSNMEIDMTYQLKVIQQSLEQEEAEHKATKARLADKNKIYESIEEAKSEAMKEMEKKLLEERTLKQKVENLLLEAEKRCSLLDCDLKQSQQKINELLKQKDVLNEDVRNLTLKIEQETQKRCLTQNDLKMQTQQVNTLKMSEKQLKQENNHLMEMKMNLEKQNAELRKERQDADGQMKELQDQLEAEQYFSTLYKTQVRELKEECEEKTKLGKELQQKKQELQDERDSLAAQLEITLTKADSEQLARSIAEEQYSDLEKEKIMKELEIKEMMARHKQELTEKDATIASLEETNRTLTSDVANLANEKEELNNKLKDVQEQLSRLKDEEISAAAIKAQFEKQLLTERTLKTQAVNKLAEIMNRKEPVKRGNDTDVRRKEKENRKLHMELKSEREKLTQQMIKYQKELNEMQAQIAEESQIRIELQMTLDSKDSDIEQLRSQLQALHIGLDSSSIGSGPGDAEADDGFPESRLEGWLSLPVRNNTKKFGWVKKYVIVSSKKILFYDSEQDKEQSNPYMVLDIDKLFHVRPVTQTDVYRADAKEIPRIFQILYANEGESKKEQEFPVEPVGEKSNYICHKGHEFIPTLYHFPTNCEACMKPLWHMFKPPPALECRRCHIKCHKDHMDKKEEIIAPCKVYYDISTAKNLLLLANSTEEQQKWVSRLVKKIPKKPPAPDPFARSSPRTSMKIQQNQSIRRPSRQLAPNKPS

This experiment has as its target ROCK2 (human) (UniProt O75116). Description: Inhibition of ROCK2 Kinase Activity.
For orientation: IC50 means the concentration that inhibits the measured activity by half. Lower therefore signals greater potency. In the case of `CC(C)(C(=O)NCC(N)c1ccc(C(=O)Nc2ccncc2)cc1)c1ccsc1` (centres undefined), the IC50 lay within 50 to 500 nM.

The compound `N[C@H](CNC(=O)C1(c2ccc(Cl)cc2)CC1)c1ccc(C(=O)Nc2ccncc2)cc1` returned a half-inhibitory concentration (IC50) of 50 to 500 nM.

For `NC(CC(=O)NC(Cc1ccccc1)c1ccccc1)c1ccc(C(=O)Nc2ccncc2)cc1` (centres undefined), the IC50 fell in the range of 50 to 500 nM.

`CN(CC(N)c1ccc(C(=O)Nc2ccncc2)cc1)C(=O)Cc1c[nH]c2ccccc12` (centres undefined) displayed an IC50 of 500 to 5000 nM.

In turn, `NC(CC(=O)NCC1CC1)c1ccc(C(=O)Nc2ccncc2)cc1` (centres undefined) displayed a 50% inhibitory concentration (IC50) of 50 to 500 nM.

Turning to `COc1ccc(CNC(=O)CC(N)c2ccc(C(=O)Nc3ccncc3)cc2)cc1` (centres undefined), the IC50 was 50 to 500 nM.

For the compound `COc1ccc(C2(C(=O)N3CCCC3C(N)c3ccc(C(=O)Nc4ccncc4)cc3)CC2)cc1` (centres undefined), the IC50 was in the range of 500 to 5000 nM.

`NC(CNC(=O)Cc1ccc(F)cc1)c1ccc(C(=O)Nc2ccncc2)cc1` (centres undefined) gave an IC50 of 50 to 500 nM.

Take `CC(NC(=O)CC(N)c1ccc(C(=O)Nc2ccncc2)cc1)c1cccc2ccccc12` (centres undefined): the IC50 was 50 to 500 nM.

On to `NC(c1ccc(C(=O)Nc2ccncc2)cc1)C1CCCN1C(=O)C1(c2ccc(Cl)cc2)CC1` (centres undefined), for which the IC50 is 500 to 5000 nM.

On to `Cc1cccc(CN2CCC(NC(=O)CC(N)c3ccc(C(=O)Nc4ccncc4)cc3)CC2)c1` (centres undefined), for which the 50% inhibitory concentration (IC50) is 50 to 500 nM.

`NC(CC(=O)NCc1ccco1)c1ccc(C(=O)Nc2ccncc2)cc1` (centres undefined): the IC50 is 50 to 500 nM.

Compound `NC(CC(=O)NCc1ccc2c(c1)OCO2)c1ccc(C(=O)Nc2ccncc2)cc1` (centres undefined) came in with an IC50 of 50 to 500 nM.

The compound `NC(CNC(=O)c1ccc2[nH]ccc2c1)c1ccc(C(=O)Nc2ccncc2)cc1` (centres undefined) had an IC50 of 50 to 500 nM.

The compound `CN(CC(N)c1ccc(C(=O)Nc2ccncc2)cc1)C(=O)Cc1cc(F)ccc1F` (centres undefined) yielded an IC50 of 500 to 5000 nM.

Compound `Cc1cc(Cl)ccc1OC(C)C(=O)NCC(N)c1ccc(C(=O)Nc2ccncc2)cc1` (centres undefined) displayed an IC50 of 50 to 500 nM.

As to `CC(C)(C(=O)NCC(N)c1ccc(C(=O)Nc2ccncc2)cc1)c1ccc(Cl)c(Cl)c1` (centres undefined), the IC50 was 50 to 500 nM.

`NC(CNC(=O)c1ccc2ccccc2c1)c1ccc(C(=O)Nc2ccncc2)cc1` (centres undefined) registered an IC50 of 50 to 500 nM.

For the compound `NC(CNC(=O)C1(c2ccccc2)CC1)c1ccc(C(=O)Nc2ccncc2)cc1` (centres undefined), the IC50 was in the range of 500 to 5000 nM.

`Cc1ccc(CC(=O)NCC(N)c2ccc(C(=O)Nc3ccncc3)cc2)cc1` (centres undefined): the half-maximal inhibitory concentration (IC50) lay in the range of 50 to 500 nM.

As to `COc1ccc(Cl)cc1NC(=O)NCC(N)c1ccc(C(=O)Nc2ccncc2)cc1` (centres undefined), the IC50 is 50 to 500 nM.

`NC(CC(=O)NCCn1cccn1)c1ccc(C(=O)Nc2ccncc2)cc1` (centres undefined): the 50% inhibitory concentration (IC50) lay within 50 to 500 nM.

As for `NC(c1ccc(C(=O)Nc2ccncc2)cc1)C1CCCN1C(=O)Cc1csc2ccccc12` (centres undefined), the IC50 was in the range of 50 to 500 nM.

Regarding `CC(Cc1ccc(Cl)cc1)NC(=O)CC(N)c1ccc(C(=O)Nc2ccncc2)cc1` (centres undefined), the IC50 was in the range of 50 to 500 nM.

As to `COc1ccc(NC(=S)NCC(N)c2ccc(C(=O)Nc3ccncc3)cc2)cc1` (centres undefined), the IC50 fell in the range of 500 to 5000 nM.

`NC(c1ccc(C(=O)Nc2ccncc2)cc1)C1CCCN1C(=O)C1(c2cccc(F)c2)CCCC1` (centres undefined): the IC50 fell in the range of 500 to 5000 nM.

The compound `NC(c1ccc(C(=O)Nc2ccncc2)cc1)C1CCCN1C(=O)Cc1ccc(-c2ccccc2)cc1` (centres undefined) registered a half-inhibitory concentration (IC50) of 500 to 5000 nM.

`NC(CC(=O)N[C@@H]1CCc2ccccc21)c1ccc(C(=O)Nc2ccncc2)cc1` (some centres undefined) returned a 50% inhibitory concentration (IC50) of 50 to 500 nM.

In turn, `NC(CNC(=O)c1c[nH]cn1)c1ccc(C(=O)Nc2ccncc2)cc1` (centres undefined) yielded a concentration for half-maximal inhibition (IC50) of 500 to 5000 nM.

`NC(CNC(=O)Nc1ccc(-c2ccccc2)cc1)c1ccc(C(=O)Nc2ccncc2)cc1` (centres undefined) registered an IC50 of 500 to 5000 nM.

On to `CCCCC(=O)NCC(N)c1ccc(C(=O)Nc2ccncc2)cc1` (centres undefined), for which the IC50 was 500 to 5000 nM.

`NC(c1ccc(C(=O)Nc2ccncc2)cc1)C1CCCN1C(=O)C1CCc2cc(F)ccc21` (centres undefined): the IC50 was in the range of 500 to 5000 nM.

With `NC(CNC(=O)c1ccc(=O)[nH]n1)c1ccc(C(=O)Nc2ccncc2)cc1` (centres undefined), the IC50 lay in the range of 500 to 5000 nM.

Regarding `NC(CNC(=O)Cc1csc(Nc2ccccc2)n1)c1ccc(C(=O)Nc2ccncc2)cc1` (centres undefined), the IC50 is 500 to 5000 nM.

In the case of `CCCCCCCCC(=O)NCC(N)c1ccc(C(=O)Nc2ccncc2)cc1` (centres undefined), the IC50 lay in the range of 50 to 500 nM.

`CCCOc1ccc(C(=O)NCC(N)c2ccc(C(=O)Nc3ccncc3)cc2)cc1` (centres undefined) showed a half-maximal inhibitory concentration (IC50) of 500 to 5000 nM.

`NC(CNC(=O)C1(c2ccc(Cl)cc2F)CC1)c1ccc(C(=O)Nc2ccncc2)cc1` (centres undefined): the IC50 was in the range of 50 to 500 nM.

For `Cc1ccc(CN2CCC(NC(=O)CC(N)c3ccc(C(=O)Nc4ccncc4)cc3)CC2)s1` (centres undefined), the IC50 fell in the range of 50 to 500 nM.

Regarding `NC(CC(=O)NCc1ccc(C(F)(F)F)cc1)c1ccc(C(=O)Nc2ccncc2)cc1` (centres undefined), the IC50 lay within 50 to 500 nM.

In the case of `COc1cccc(C(=O)NCC(N)c2ccc(C(=O)Nc3ccncc3)cc2)c1` (centres undefined), the IC50 was in the range of 500 to 5000 nM.

With `COc1ccc(CC(=O)NCC(N)c2ccc(C(=O)Nc3ccncc3)cc2)cc1F` (centres undefined), the IC50 is 50 to 500 nM.

Regarding `CN(CC(N)c1ccc(C(=O)Nc2ccncc2)cc1)C(=O)C1CCOc2ccccc21` (centres undefined), the IC50 is 500 to 5000 nM.

In turn, `NC(CNC(=O)C1CC1)c1ccc(C(=O)Nc2ccncc2)cc1` (centres undefined) showed an IC50 of 500 to 5000 nM.

`COc1ccc(CC(=O)N(C)CC(N)c2ccc(C(=O)Nc3ccncc3)cc2)cc1F` (centres undefined) yielded an IC50 of 500 to 5000 nM.
